# Values of other authors in patent US11642339B2 (THERAVANCE BIOPHARMA R&D IP, LLC, priority 2017, dated 2023).
# Assays:
# [1] = system: patients on daily therapy; settings: long-term use; cited from earlier work
# [2] = system: patients with functional dyspepsia; settings: after 4 weeks of treatment; placebo 12.7%; cited from earlier work
# [3] = system: patients with functional dyspepsia; settings: Japan, placebo 35%; cited from earlier work
smiles,measurement,setting,value
CCN(CC)CCNC(=O)c1cc(Cl)c(N)cc1OC [metoclopramide],patients with adverse CNS effects,[1],up to 30%
O=C1[C@@H]2[C@H]3CC[C@H](C3)[C@@H]2C(=O)N1CCCCN1CCN(c2ncccn2)CC1 [tandospirone],response rate,[2],31.5%
COc1cc(O)c(C(=O)Nc2nc(C(=O)NCCN(C(C)C)C(C)C)cs2)cc1OC [Acotiamide],patients with symptom improvement,[3],52%
